# Measurements as given in ChEMBL document CHEMBL5518162, “Design, synthesis, and biological evaluation of 2-amino-6-methyl-phenol derivatives targeting lipid peroxidation with potent anti-ferroptotic activities” (Eur J Med Chem, 2024).
# Active and inactive are the calls of the source. No cut-off for these calls is given here.
# Tests used:
# HT-1080 [1] = experiment: Anti-ferroptotic activity against RSL3-induced ferroptosis in human HT-1080 cells assessed as inhibition of ferroptosis incubated for 24 hrs by CCK-8 assay; type: functional, cell-based; conditions: HT-1080, 24 h
# [2] = Antioxidant activity assessed as DPPH radical scavenging activity at 10 uM; type: functional
# HT-1080 [3] = experiment: Suppression of RSL-3 induced lipid ROS generation in human HT-1080 cells assessed as decrease in STY-BODIPY oxidation at 100 nM by C11-BODIPY581/591 staining based confocal microscopy; type: functional, cell-based
# HT-1080 [4] = experiment: Effect on FTH1 level in RSL3-induced human HT-1080 cells by measuring mRNA level by qRT-PCT analysis; type: functional, cell-based
# HT-1080 [5] = experiment: Suppression of RSL-3 induced lipid ROS generation in human HT-1080 cells assessed as decrease in STY-BODIPY oxidation at 100 nM by C11-BODIPY581/591 staining based flow cytometry analysis; type: functional, cell-based
# HT-1080 [6] = experiment: Effect on GPX4 level in unstimulated human HT-1080 cells by measuring mRNA level by qRT-PCT analysis; type: functional, cell-based
# HT-1080 [7] = experiment: Effect on DMT1 level in RSL3-induced human HT-1080 cells by measuring mRNA level by qRT-PCT analysis; type: functional, cell-based
# HT-1080 [8] = experiment: Effect on TFRC level in unstimulated human HT-1080 cells by measuring mRNA level by qRT-PCT analysis; type: functional, cell-based
# HT-1080 [9] = experiment: Effect on ACSL4 level in unstimulated human HT-1080 cells by measuring mRNA level by qRT-PCT analysis; type: functional, cell-based
# HT-1080 [10] = experiment: Effect on GPX4 level in RSL3-induced human HT-1080 cells by measuring mRNA level by qRT-PCT analysis; type: functional, cell-based
# HT-1080 [11] = experiment: Effect on SLC7A11 level in RSL3-induced human HT-1080 cells by measuring mRNA level by qRT-PCT analysis; type: functional, cell-based
# HT-1080 [12] = experiment: Suppression of RSL3-induced malondialdehyde adducts accumulation in human HT-1080 cells at 100 nM by lipid peroxidation (MDA) assay; type: functional, cell-based
# HT-1080 [13] = experiment: Effect on DMT1 level in unstimulated human HT-1080 cells by measuring mRNA level by qRT-PCT analysis; type: functional, cell-based
# HT-1080 [14] = experiment: Effect on ACSL4 level in RSL3-induced human HT-1080 cells by measuring mRNA level by qRT-PCT analysis; type: functional, cell-based
# HT-1080 [15] = experiment: Effect on SLC7A11 level in unstimulated human HT-1080 cells by measuring mRNA level by qRT-PCT analysis; type: functional, cell-based
# HT-1080 [16] = experiment: Effect on TFRC level in RSL3-induced human HT-1080 cells by measuring mRNA level by qRT-PCT analysis; type: functional, cell-based
# HT-1080 [17] = experiment: Effect on FTH1 level in unstimulated human HT-1080 cells by measuring mRNA level by qRT-PCT analysis; type: functional, cell-based
# HT-1080 [18] = experiment: Anti-ferroptotic activity against erastin-induced ferroptosis in human HT-1080 cells assessed as […] incubated for 24 hrs by CCK-8 assay; type: functional, cell-based
# HT-1080 [19] = experiment: Anti-ferroptotic activity against erastin-induced ferroptosis in human HT-1080 cells assessed as preservation of cell viability above […] incubated for 24 hrs by CCK-8 assay; type: functional, cell-based
# HT-1080 [20] = experiment: Anti-ferroptotic activity against RSL3-induced ferroptosis in human HT-1080 cells assessed as reduction in cell viability at 250 nM incubated for 24 hrs by CCK-8 assay; type: functional
# HT-1080 [21] = experiment: Anti-ferroptotic activity against erastin-induced ferroptosis in human HT-1080 cells assessed as reduction in cell viability at 250 nM incubated for 24 hrs by CCK-8 assay; type: functional
# HT-1080 [22] = experiment: Anti-ferroptotic activity against RSL3-induced ferroptosis in human HT-1080 cells assessed as […] incubated for 24 hrs by CCK-8 assay; type: functional, cell-based; conditions: dose 0.1-1 µM
# HT-1080 [23] = experiment: Anti-ferroptotic activity against RSL3-induced ferroptosis in human HT-1080 cells assessed as preservation of cell viability above […] incubated for 24 hrs by CCK-8 assay; type: functional, cell-based
# HepG2 = experiment: Anti-ferroptotic activity against RSL3-induced ferroptosis in human HepG2 cells assessed as […] at 100 nM incubated for 24 hrs by CCK-8 assay; type: functional, cell-based
# Mus musculus [24] = experiment: Protection of kidney in ischemia-reperfusion-induced kidney injury C57BL/6Nj mouse model assessed as focal eosinophilic degeneration of renal tubular epithelial cells in the extra medullary zone at 10 mg/kg, ip pretreated for 1 hr followed by bilateral artery clamping for 45 mins and measured after 24 hrs by hematoxylin and eosin staining based analysis; type: functional, organism-based; conditions: time 1545.0 min
# Mus musculus [25] = experiment: Protection of kidney in ischemia-reperfusion-induced kidney injury C57BL/6Nj mouse model assessed as reduction of serum creatinine level at 10 mg/kg, ip pretreated for 1 hr followed by bilateral artery clamping for 45 mins and measured after 24 hrs; type: functional, organism-based
# Huh-7 = experiment: Anti-ferroptotic activity against RSL3-induced ferroptosis in human Huh-7 cells assessed as […] at 100 nM incubated for 24 hrs by CCK-8 assay; type: functional, cell-based
# HT-1080 [26] = experiment: Anti-ferroptotic activity against erastin-induced ferroptosis in human HT-1080 cells assessed as reduction in cell death at 100 nM incubated for 24 hrs by CCK-8 assay; type: functional, cell-based
# HeLa = experiment: Anti-ferroptotic activity against RSL3-induced ferroptosis in human HeLa cells assessed as […] at 100 nM incubated for 24 hrs by CCK-8 assay; type: functional, cell-based
# HTR-8/SVneo = experiment: Anti-ferroptotic activity against RSL3-induced ferroptosis in human HTR-8/SVneo cells assessed as […] at 100 nM incubated for 24 hrs by CCK-8 assay; type: functional, cell-based
# Mus musculus [27] = experiment: Protection of kidney in ischemia-reperfusion-induced kidney injury C57BL/6Nj mouse model assessed as focal necrosis of renal tubular epithelial cells and nuclear fixation at 10 mg/kg, ip pretreated for 1 hr followed by bilateral artery clamping for 45 mins and measured after 24 hrs by hematoxylin and eosin staining based analysis; type: functional, organism-based; conditions: time 1545.0 min
# Mus musculus [28] = experiment: Protection of kidney in ischemia-reperfusion-induced kidney injury C57BL/6Nj mouse model assessed as prevention of […] by measuring 4-HNE at 10 mg/kg, ip pretreated for 1 hr followed by bilateral artery clamping for 45 mins and measured after 24 hrs by immunohistochemistry staining based analysis; type: functional, organism-based; conditions: time 1545.0 min
# Mus musculus [29] = experiment: Protection of kidney in ischemia-reperfusion-induced kidney injury C57BL/6Nj mouse model assessed as reduction of blood urea nitrogen level at 10 mg/kg, ip pretreated for 1 hr followed by bilateral artery clamping for 45 mins and measured after 24 hrs; type: functional, organism-based
# HT-1080 [30] = experiment: Anti-ferroptotic activity against BSO-induced ferroptosis in human HT-1080 cells assessed as […] at 100 nM incubated for 24 hrs by CCK-8 assay; type: functional, cell-based
# HT-1080 [31] = experiment: Anti-ferroptotic activity against FIN56-induced ferroptosis in human HT-1080 cells assessed as reduction in cell death at 100 nM incubated for 24 hrs by CCK-8 assay; type: functional, cell-based
# HT-1080 [32] = experiment: Anti-ferroptotic activity against RSL3-induced ferroptosis in human HT-1080 cells assessed as reduction in cell death at 100 nM incubated for 24 hrs by CCK-8 assay; type: functional, cell-based
# HT-1080 [33] = experiment: Anti-ferroptotic activity against ML210-induced ferroptosis in human HT-1080 cells assessed as reduction in cell death at 100 nM incubated for 24 hrs by CCK-8 assay; type: functional, cell-based
structure (smiles),measurement,setting,value
COc1ccc(CNc2cccc(C)c2O)cc1,EC50,HT-1080 [1],78.9 nM
same,Activity,[2],Active
CC(=O)c1cccc(N)c1O,EC50,HT-1080 [1],> 10000 nM
same,Activity,[2],Active
Nc1cccc(C(=O)O)c1O,EC50,HT-1080 [1],> 10000 nM
same,Activity,[2],Active
Cc1cccc(NCc2ccc(Cl)cc2)c1O,Activity,HT-1080 [3],Active
same,Activity,HT-1080 [4],inactive
same,Activity,HT-1080 [5],Active
same,Activity,HT-1080 [6],inactive
same,Activity,HT-1080 [7],inactive
same,Activity,HT-1080 [8],inactive
same,Activity,HT-1080 [9],inactive
same,Activity,HT-1080 [10],inactive
same,Activity,HT-1080 [11],inactive
same,Activity,HT-1080 [12],Active
same,EC50,HT-1080 [1],131 nM
same,Activity,HT-1080 [13],inactive
same,Activity,HT-1080 [14],inactive
same,Activity,[2],Active
same,Activity,HT-1080 [15],inactive
same,Activity,HT-1080 [16],inactive
same,Activity,HT-1080 [17],inactive
CCNc1cccc(C)c1O,EC50,HT-1080 [1],60.4 nM
same,Activity,[2],Active
CCOC(=O)c1ccc(NC2CCCCC2)c(N)c1,Activity,HT-1080 [3],Active
same,Activity,HT-1080 [5],Active
same,EC50,HT-1080 [1],138 nM
same,Activity,[2],Active
Cc1cccc([N+](=O)[O-])c1O,EC50,HT-1080 [1],> 10000 nM
same,Activity,[2],Active
Cc1cccc(NCc2ccccc2)c1O,EC50,HT-1080 [1],181 nM
same,Activity,[2],Active
Cc1cccc(NCc2cccc(C#N)c2)c1O,EC50,HT-1080 [1],158 nM
same,Activity,[2],Active
Cc1cccc(N)c1O,Activity,HT-1080 [18],Dose-Dependent Effect
same,EC50,"HT-1080 [18]; HT-1080, 24 h",132 nM
same,Activity,HT-1080 [19],Active
same,Activity,HT-1080 [20],100%
same,Activity,HT-1080 [21],100%
same,Activity,HT-1080 [22],Dose-Dependent Effect
same,EC50,HT-1080 [1],207 nM
same,Activity,[2],Active
same,Activity,HT-1080 [23],Active
Cc1ccc(CNc2cccc(C)c2O)cc1,Activity,HepG2,Active
same,Activity,Mus musculus [24],Active
same,Activity,HT-1080 [3],Active
same,Activity,Mus musculus [25],Active
same,Activity,Huh-7,Active
same,Activity,HT-1080 [26],Active
same,Activity,HeLa,Active
same,Activity,HT-1080 [4],inactive
same,Activity,HT-1080 [5],Active
same,Activity,HT-1080 [6],inactive
same,Activity,HTR-8/SVneo,Active
same,Activity,HT-1080 [7],inactive
same,Activity,HT-1080 [8],inactive
same,Activity,Mus musculus [27],Active
same,Activity,HT-1080 [9],inactive
same,Activity,Mus musculus [28],Active
same,Activity,HT-1080 [10],inactive
same,Activity,HT-1080 [11],inactive
same,Activity,HT-1080 [12],Active
same,EC50,HT-1080 [1],25.5 nM
same,Activity,HT-1080 [13],inactive
same,Activity,HT-1080 [14],inactive
same,Activity,[2],Active
same,Activity,Mus musculus [29],Active
same,Activity,HT-1080 [15],inactive
same,Activity,HT-1080 [30],Active
same,Activity,HT-1080 [16],inactive
same,Activity,HT-1080 [17],inactive
same,Activity,HT-1080 [31],Active
same,Activity,HT-1080 [32],Active
same,Activity,HT-1080 [33],Active
COc1c(C)cccc1N,EC50,HT-1080 [1],> 10000 nM
same,Activity,[2],Active
CCCCNc1cccc(C)c1O,Activity,HT-1080 [3],Active
same,Activity,HT-1080 [4],inactive
same,Activity,HT-1080 [5],Active
same,Activity,HT-1080 [6],inactive
same,Activity,HT-1080 [7],inactive
same,Activity,HT-1080 [8],inactive
same,Activity,HT-1080 [9],inactive
same,Activity,HT-1080 [10],inactive
same,Activity,HT-1080 [11],inactive
same,Activity,HT-1080 [12],Active
same,EC50,HT-1080 [1],74.7 nM
same,Activity,HT-1080 [13],inactive
same,Activity,HT-1080 [14],inactive
same,Activity,[2],Active
same,Activity,HT-1080 [15],inactive
same,Activity,HT-1080 [16],inactive
same,Activity,HT-1080 [17],inactive
Cc1cccc(NCc2cccc([N+](=O)[O-])c2)c1O,EC50,HT-1080 [1],149 nM
same,Activity,[2],Active
Cc1cccc(N)c1OCc1ccccc1,EC50,HT-1080 [1],> 10000 nM
same,Activity,[2],Active
COC(=O)c1ccc(CNc2cccc(C)c2O)cc1,EC50,HT-1080 [1],164 nM
same,Activity,[2],Active
